According to ChEMBL document CHEMBL1201862, “PubChem BioAssay data set” (2004):
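Values below derive from 48-hour exposures of cells grown in 96-well plates, with endpoints linearly interpolated between the two concentrations bracketing the appropriate inhibition level. At the GI50, growth is halved.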 Calls of active or inactive are those of the source. No stated cut-off is given here; in the data, active = GI50 up to about 1.1 µM and inactive = higher.

Legend:
Experiment in all cases: growth of human tumour cells (NCI), 48 h
HT-29 = tested on: HT-29
SNB-75 = tested on: SNB-75
OVCAR-5 = tested on: OVCAR-5
LOX IMVI = tested on: LOX IMVI
A549 = tested on: A549
CCRF-CEM = tested on: CCRF-CEM
SN12C = tested on: SN12C
COLO 205 = tested on: COLO 205
SK-MEL-5 = tested on: SK-MEL-5
HCT-15 = tested on: HCT-15
786-0 = tested on: 786-0
MDA-N = tested on: MDA-N
NCI-H23 = tested on: NCI-H23
CAKI-1 = tested on: CAKI-1
K562 = tested on: K562
SF-295 = tested on: SF-295
ACHN = tested on: ACHN
UACC-62 = tested on: UACC-62
SK-MEL-2 = tested on: SK-MEL-2
NCI/ADR-RES = tested on: NCI/ADR-RES

For `[N-]=[N+]=NCC(=O)c1cnc(O)nc1O`, the GI50 (HT-29) was > 100 µM (inactive), the GI50 (SNB-75) was > 100 µM (inactive) and the GI50 (OVCAR-5) was > 100 µM (inactive). The GI50 (LOX IMVI) was > 100 µM (inactive), the GI50 (A549) was > 100 µM (inactive) and the GI50 (CCRF-CEM) was > 100 µM (inactive). For the same compound, the GI50 (SN12C) was > 100 µM (inactive), the GI50 (COLO 205) was > 100 µM (inactive) and the GI50 (SK-MEL-5) was > 100 µM (inactive). For the same compound, the GI50 (HCT-15) was greater than 100 µM, the GI50 (786-0) was > 100 µM (inactive) and the GI50 (MDA-N) was > 100 µM (inactive). For the same compound, the GI50 (NCI-H23) was > 100 µM (inactive), the GI50 (CAKI-1) was > 100 µM (inactive) and the GI50 (K562) was > 100 µM (inactive). The GI50 (SF-295) was > 100 µM (inactive), the GI50 (ACHN) was > 100 µM (inactive) and the GI50 (UACC-62) was > 100 µM (inactive). For the same compound, the GI50 (SK-MEL-2) was > 100 µM (inactive) and the GI50 (NCI/ADR-RES) was > 100 µM (inactive).
With `O=C(N/N=C1/C(=O)c2c3ccccc3cc3cccc1c23)c1ccccc1` the GI50 (HT-29) was 30.2 µM (inactive), the GI50 (SNB-75) was 27.2 µM (inactive) and the GI50 (OVCAR-5) was 34.3 µM (inactive). The GI50 (LOX IMVI) was 37.9 µM (inactive), the GI50 (A549) was 12.2 µM (inactive) and the GI50 (CCRF-CEM) was > 53.1 µM (inactive). The GI50 (SN12C) was 37.8 µM (inactive), the GI50 (COLO 205) was > 65.6 µM (inactive) and the GI50 (SK-MEL-5) was 23.6 µM (inactive). The GI50 (HCT-15) was 49.1 µM, the GI50 (786-0) was 19.1 µM (inactive) and the GI50 (MDA-N) was 39.4 µM (inactive). For the same compound, the GI50 (NCI-H23) was 36.3 µM (inactive), the GI50 (CAKI-1) was 26.4 µM (inactive) and the GI50 (K562) was > 59.6 µM (inactive). The GI50 (SF-295) was 20.5 µM (inactive), the GI50 (ACHN) was 29.1 µM (inactive) and the GI50 (UACC-62) was 26.8 µM (inactive). For the same compound, the GI50 (SK-MEL-2) was 33.2 µM (inactive) and the GI50 (NCI/ADR-RES) was 40 µM (inactive).
`COc1cccc(C2CC(C)(O)Oc3cc4c(cc32)OCO4)c1` (stereo not given) was tested, and the GI50 (HT-29) was 7.26 µM (inactive), the GI50 (SNB-75) was 18.6 µM (inactive) and the GI50 (OVCAR-5) was 35.8 µM (inactive). For the same compound, the GI50 (LOX IMVI) was 22.3 µM (inactive), the GI50 (A549) was 31 µM (inactive) and the GI50 (CCRF-CEM) was 47.8 µM (inactive). For the same compound, the GI50 (SN12C) was 27.3 µM (inactive), the GI50 (COLO 205) was 20.7 µM (inactive) and the GI50 (SK-MEL-5) was 14.2 µM (inactive). The GI50 (HCT-15) was 7.01 µM, the GI50 (786-0) was 33.7 µM (inactive) and the GI50 (MDA-N) was 2.82 µM (inactive). The GI50 (NCI-H23) was 28.1 µM (inactive), the GI50 (CAKI-1) was 29 µM (inactive) and the GI50 (K562) was 19.5 µM (inactive). The GI50 (SF-295) was 17.8 µM (inactive), the GI50 (ACHN) was 25.9 µM (inactive) and the GI50 (UACC-62) was 14.4 µM (inactive). For the same compound, the GI50 (SK-MEL-2) was 9.53 µM (inactive) and the GI50 (NCI/ADR-RES) was 16.3 µM (inactive).
In the case of `O=C1/C(=C/c2ccccc2)CCc2ccc(Cl)nc21`, the GI50 (HT-29) is reported as 1.92 µM (inactive), the GI50 (SNB-75) is reported as 17.2 µM (inactive) and the GI50 (OVCAR-5) is reported as 17.3 µM (inactive). The GI50 (LOX IMVI) was 2.19 µM (inactive), the GI50 (A549) was 16.6 µM (inactive) and the GI50 (CCRF-CEM) was 1.43 µM (inactive). The GI50 (SN12C) was 6.03 µM (inactive), the GI50 (COLO 205) was 19.7 µM (inactive) and the GI50 (SK-MEL-5) was 5.31 µM (inactive). The GI50 (HCT-15) was 3.52 µM, the GI50 (786-0) was 7.18 µM (inactive) and the GI50 (MDA-N) was 4 µM (inactive). The GI50 (NCI-H23) was 16.6 µM (inactive), the GI50 (CAKI-1) was 3.77 µM (inactive) and the GI50 (K562) was 2.17 µM (inactive). The GI50 (SF-295) was 17.2 µM (inactive), the GI50 (ACHN) was 11.9 µM (inactive) and the GI50 (UACC-62) was 10.4 µM (inactive). The GI50 (SK-MEL-2) was 16.7 µM (inactive) and the GI50 (NCI/ADR-RES) was 19.6 µM (inactive).
For `[N-]=[N+]=CC(=O)C1CCCN1C(=O)c1ccccc1` (stereo not given), the GI50 (HT-29) was > 10 µM (inactive), the GI50 (SNB-75) was 0.585 µM (active) and the GI50 (OVCAR-5) was > 10 µM (inactive). For the same compound, the GI50 (LOX IMVI) was > 10 µM (inactive), the GI50 (A549) was > 10 µM (inactive) and the GI50 (CCRF-CEM) was > 10 µM (inactive). The GI50 (SN12C) was > 10 µM (inactive), the GI50 (COLO 205) was > 10 µM (inactive) and the GI50 (SK-MEL-5) was > 10 µM (inactive). The GI50 (HCT-15) was greater than 10 µM, the GI50 (786-0) was > 10 µM (inactive) and the GI50 (MDA-N) was > 10 µM (inactive). For the same compound, the GI50 (NCI-H23) was > 10 µM (inactive), the GI50 (CAKI-1) was > 10 µM (inactive) and the GI50 (K562) was > 10 µM (inactive). The GI50 (SF-295) was > 10 µM (inactive), the GI50 (ACHN) was > 10 µM (inactive) and the GI50 (UACC-62) was > 10 µM (inactive). For the same compound, the GI50 (SK-MEL-2) was > 10 µM (inactive) and the GI50 (NCI/ADR-RES) was > 10 µM (inactive).
In the case of `Sc1nnc(Cc2ccc(Cl)cc2)[nH]1`, the GI50 (HT-29) is reported as > 100 µM (inactive), the GI50 (SNB-75) is reported as 33.2 µM (inactive) and the GI50 (OVCAR-5) is reported as > 100 µM (inactive). For the same compound, the GI50 (LOX IMVI) was 38.1 µM (inactive), the GI50 (A549) was 44.1 µM (inactive) and the GI50 (CCRF-CEM) was 63.1 µM (inactive). The GI50 (SN12C) was 78.2 µM (inactive), the GI50 (COLO 205) was 48 µM (inactive) and the GI50 (SK-MEL-5) was 39.6 µM (inactive). For the same compound, the GI50 (HCT-15) was 59.6 µM, the GI50 (786-0) was 61.4 µM (inactive) and the GI50 (MDA-N) was > 100 µM (inactive). The GI50 (NCI-H23) was 26.6 µM (inactive), the GI50 (CAKI-1) was 56.2 µM (inactive) and the GI50 (K562) was 48.8 µM (inactive). The GI50 (SF-295) was 43.7 µM (inactive), the GI50 (ACHN) was 45.3 µM (inactive) and the GI50 (UACC-62) was 66.7 µM (inactive). The GI50 (SK-MEL-2) was > 100 µM (inactive) and the GI50 (NCI/ADR-RES) was 42.1 µM (inactive).
With `CC(C)NCCCNc1c2ccccc2nc2cccc([N+](=O)[O-])c12` the GI50 (HT-29) was 0.00202 µM (active), the GI50 (SNB-75) was 0.0308 µM (active) and the GI50 (OVCAR-5) was 0.0128 µM (active). The GI50 (LOX IMVI) was 0.0101 µM (active), the GI50 (A549) was 0.00358 µM (active) and the GI50 (CCRF-CEM) was 0.0142 µM (active). For the same compound, the GI50 (SN12C) was 0.00957 µM (active), the GI50 (COLO 205) was 0.00161 µM (active) and the GI50 (SK-MEL-5) was 0.00354 µM (active). For the same compound, the GI50 (HCT-15) was 0.0504 µM, the GI50 (786-0) was 0.00445 µM (active) and the GI50 (MDA-N) was 0.0138 µM (active). For the same compound, the GI50 (NCI-H23) was 0.00156 µM (active), the GI50 (CAKI-1) was 0.029 µM (active) and the GI50 (K562) was 0.00262 µM (active). The GI50 (SF-295) was 0.00746 µM (active), the GI50 (ACHN) was 0.0136 µM (active) and the GI50 (UACC-62) was 0.0125 µM (active). For the same compound, the GI50 (SK-MEL-2) was 0.0157 µM (active) and the GI50 (NCI/ADR-RES) was 0.794 µM (active).
In the case of `CCCCCCCCCCCCCCCCCCOCC(O)COP(=O)(O)OCC1OC(n2cc(F)c(=O)[nH]c2=O)CC1O` (stereo not given), the GI50 (HT-29) is reported as 10.5 µM (inactive), the GI50 (SNB-75) is reported as 2.89 µM (inactive) and the GI50 (OVCAR-5) is reported as 12.5 µM (inactive). For the same compound, the GI50 (LOX IMVI) was 0.658 µM (active), the GI50 (A549) was 0.51 µM (active) and the GI50 (CCRF-CEM) was 0.318 µM (active). For the same compound, the GI50 (SN12C) was 5.81 µM (inactive), the GI50 (COLO 205) was 5.15 µM (inactive) and the GI50 (SK-MEL-5) was 4.01 µM (inactive). For the same compound, the GI50 (HCT-15) was 10.8 µM, the GI50 (786-0) was 1.22 µM (inactive) and the GI50 (MDA-N) was 13.4 µM (inactive). For the same compound, the GI50 (NCI-H23) was 2.97 µM (inactive), the GI50 (CAKI-1) was 2.16 µM (inactive) and the GI50 (K562) was 10.4 µM (inactive). For the same compound, the GI50 (SF-295) was 0.682 µM (active), the GI50 (ACHN) was 0.38 µM (active) and the GI50 (UACC-62) was 0.579 µM (active). The GI50 (SK-MEL-2) was 21.4 µM (inactive) and the GI50 (NCI/ADR-RES) was 2.05 µM (inactive).
With `OCCOc1ccc(-c2cc(-c3ccccn3)nc(-c3ccccn3)c2)cc1` the GI50 (HT-29) was 0.112 µM (active), the GI50 (SNB-75) was 0.458 µM (active) and the GI50 (OVCAR-5) was 0.192 µM (active). The GI50 (LOX IMVI) was 0.0916 µM (active), the GI50 (A549) was 0.172 µM (active) and the GI50 (CCRF-CEM) was 0.0618 µM (active). The GI50 (SN12C) was 0.195 µM (active), the GI50 (COLO 205) was 0.115 µM (active) and the GI50 (SK-MEL-5) was 0.23 µM (active). The GI50 (HCT-15) was 0.0574 µM, the GI50 (786-0) was 0.0736 µM (active) and the GI50 (MDA-N) was 0.697 µM (active). For the same compound, the GI50 (NCI-H23) was 0.447 µM (active), the GI50 (CAKI-1) was 0.398 µM (active) and the GI50 (K562) was 0.107 µM (active). The GI50 (SF-295) was 0.222 µM (active), the GI50 (ACHN) was 0.0661 µM (active) and the GI50 (UACC-62) was 0.206 µM (active). The GI50 (SK-MEL-2) was 0.115 µM (active) and the GI50 (NCI/ADR-RES) was 0.202 µM (active).
